Where only a bound is given, the exact number is not on record here.

The results in this text go back to patent US20240270759A1, “Preparation of SHP2 phosphatase inhibitors and its applications” (Ya Therapeutics Inc, priority 2021, published 2024).

This assay deals with T1, SHP2 full-length protein (Homo sapiens, UniProt Q06124).
T1 construct: purchased BPS Bioscience #79330
T1 sequence (Q06124 1-593): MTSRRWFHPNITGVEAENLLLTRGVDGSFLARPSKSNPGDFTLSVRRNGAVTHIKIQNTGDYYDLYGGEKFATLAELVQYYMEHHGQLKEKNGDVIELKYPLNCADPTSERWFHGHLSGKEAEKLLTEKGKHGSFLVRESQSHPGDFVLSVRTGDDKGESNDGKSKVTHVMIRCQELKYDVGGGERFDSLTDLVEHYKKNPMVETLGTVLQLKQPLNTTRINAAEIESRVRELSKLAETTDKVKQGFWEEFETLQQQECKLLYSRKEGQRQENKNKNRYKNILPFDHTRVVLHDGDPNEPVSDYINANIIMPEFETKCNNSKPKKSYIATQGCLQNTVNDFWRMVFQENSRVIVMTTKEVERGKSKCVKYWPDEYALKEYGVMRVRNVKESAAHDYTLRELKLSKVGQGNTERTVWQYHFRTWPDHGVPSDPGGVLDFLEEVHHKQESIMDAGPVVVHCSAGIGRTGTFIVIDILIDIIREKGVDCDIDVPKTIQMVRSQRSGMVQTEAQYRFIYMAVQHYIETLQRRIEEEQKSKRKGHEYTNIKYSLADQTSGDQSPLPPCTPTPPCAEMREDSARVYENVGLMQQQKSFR
The assay can be described thus: SHP2 allosteric inhibition experiment (Homogeneous Full Length SHP-2 Assay Kit). Format: biochemical. The settings on record: full-length SHP2 0.06 nM with SHP-2 activating peptide; ten-point, 1 μM to 0.05 nM; read-out: IC50 Values of Compounds Inhibiting SHP2.
By IC50 is commonly meant the midpoint of a concentration-inhibition curve. On to `Nc1nccc(-n2c(=O)[nH]c3nc(N4CCC5(CC4)Cc4cnccc4[C@H]5N)ccc3c2=O)c1Cl` [Compound 27, (S)-3-(2-amino-3-chloropyridine-4-yl)-7-(5-amino-5,7-dihydrospiro[cyclopenta[c]pyridine-6,4′-piperidine]-1′-yl) pyridinyl[2,3-d]pyrimidine-2,4(1H,3H)-dione], for which the 50% inhibitory concentration (IC50) was ≤ 10 nM.

In the case of `C[C@@H]1OCC2(CCN(c3ncc(Sc4cccc(Nc5ccncn5)c4Cl)cn3)CC2)[C@@H]1N` [Compound 122, (3S,4S)-8-(5-((2-chloro-3-(pyrimidine-4-amino)phenyl)mercapto)pyrimidine-2-yl)-3-methyl-2-oxa-8-azaspiro[4.5]decane-4-amine], the IC50 was ≤ 10 nM. The result for `N[C@@H]1c2ccncc2CC12CCN(c1cnc3c(=O)n(-c4cccc(Cl)c4Cl)c(=O)[nH]c3n1)CC2` [Compound 15, (S)-7-(5-Amino-5,7-dihydrospiro [cyclopenta[c]pyridine-6,4′-piperidine]-1′-yl)-3-(2,3-dichlorophenyl)pteridine-2,4(1H,3H)-dione] reads 10 to 100 nM; that for `N[C@@H]1c2ccncc2CC12CCN(c1cnc3c(=O)n(-c4ccnc(NC5CC5)c4Cl)c(=O)[nH]c3n1)CC2` [Compound 24], ≤ 10 nM. On to `C[C@@H]1OCC2(CCN(c3ccc4nc(Sc5cccc(-c6cccnc6)c5Cl)ncc4n3)CC2)[C@@H]1N` [Compound 80], for which the IC50 is ≤ 10 nM. The result for `C[C@@H]1OCC2(CCN(c3ncc(Sc4cccc(NC(=O)c5c(O)nc6n(c5=O)CCCC6)c4Cl)nn3)CC2)[C@@H]1N` [Compound 130, N-(3-((2-((3S,4S)-4-amino-3-methyl-2-oxa-8-azaspiro[4.5]decane-8-yl)-1,2,4-triazine-6-yl)mercapto)-2-chlorophenyl)-2-hydroxy-4-oxo-6,7,8,9-tetrahydro-4H-pyridinyl[1,2-a]pyrimidine-3-carboxamide] reads ≤ 10 nM. Consider `C[C@@H]1OCC2(CCN(c3cnc4nc(Sc5cccc(NC(=O)c6ccncn6)c5Cl)ncc4n3)CC2)[C@@H]1N` [Compound 81, N-(3-((6-((3S,4S)-4-amino-3-methyl-2-oxa-8-azaspiro[4.5]decane-8-yl)pteridine-2-yl)mercapto)-2-chlorophenyl)pyrimidine-4-carboxamide], for which the IC50 was ≤ 10 nM. As for `CCn1ccc(-c2cccc(Sc3ncc4nc(N5CCC6(CC5)CO[C@@H](C)[C@H]6N)ccc4n3)c2Cl)n1` [Compound 68, (3S,4S)-8-(2-((2-chloro-3-(1-ethyl-1H-pyrazole-3-yl)phenyl)mercapto)pyridinyl[3,2-d]pyrimidine-6-yl)-3-methyl-2-oxa-8-azaspiro[4.5]decane-4-amine], the half-inhibitory concentration (IC50) is ≤ 10 nM.

With `C[C@@H]1OCC2(CCN(c3ccc4nc(Sc5cccc(NC(=O)c6c(O)nc7n(c6=O)CCCC7)c5Cl)ncc4n3)CC2)[C@@H]1N` [Compound 89, N-(3-((6-((3S,4S)-4-amino-3-methyl-2-oxa-8-azaspiro[4.5]decane-8-yl)pyridinyl[3,2-d]pyrimidine-2-yl)mercapto)-2-chlorophenyl)-2-hydroxy-4-oxo-6,7,8,9-tetrahydro-4H-pyridinyl[1,2-a]pyrimidine-3-carboxamide], the 50% inhibitory concentration (IC50) was ≤ 10 nM. In the case of `N[C@@H]1c2ccncc2CC12CCN(c1ccc3c(=O)n(-c4cccc(Cl)c4Cl)c(=O)[nH]c3n1)CC2` [Compound 26, (S)-7-(5-Amino-5,7-dihydrospiro [cyclopenta[c]pyridine-6,4′-piperidine]-1′-yl)-3-(2,3-dichlorophenyl)pyridinyl[2,3-d]pyrimidine-2,4(1H,3H)-dione] it was ≤ 10 nM; in that of `C[C@@H]1OCC2(CCN(c3ncc(Sc4cccc(-c5cccnc5)c4Cl)cn3)CC2)[C@@H]1N` [Compound 117, (3S,4S)-8-(5-((2-chloro-3-(pyridine-3-yl)phenyl)mercapto)pyrimidine-2-yl)-3-methyl-2-oxa-8-azaspiro[4.5]decane-4-amine], ≤ 10 nM; in that of `Nc1nccc(-n2c(=O)[nH]c3nc(N4CCC5(CC4)Cc4cnccc4[C@H]5N)cnc3c2=O)c1Cl` [Compound 20, (S)-3-(2-amino-3-chloropyridine-4-yl)-7-(5-amino-5,7-dihydrospiro[cyclopenta[c]pyridine-6,4′-piperidine]-1′-yl)pteridine-2,4(1H,3H)-dione], ≤ 10 nM.

As to `C[C@@H]1OCC2(CCN(c3ccc4c(=O)n(-c5cccc(Cl)c5Cl)c(=O)[nH]c4c3)CC2)C1N` (stereo in doubt) [Compound 1, 7-((3S,4S)-4-amino-3-methyl-2-oxa-8-azaspiro[4.5]decane-8-yl)-3-(2,3-dichlorophenyl)quinazoline-2,4(1H,3H)-dione], the half-maximal inhibitory concentration (IC50) was ≤ 10 nM. `N[C@@H]1c2cccnc2CC12CCN(c1cnc3c(=O)n(-c4cccc(Cl)c4Cl)c(=O)[nH]c3n1)CC2` [Compound 14, (S)-7-(5-Amino-5,7-dihydrospiro [cyclopenta[b]pyridine-6,4′-piperidine]-1′-yl)-3-(2,3-dichlorophenyl)pteridine-2,4(1 H,3H)-dione]: the IC50 fell in the range of 10 to 100 nM. In the case of `C[C@@H]1OCC2(CCN(c3cnc4nc(Sc5cccc(-c6ccn(C)n6)c5Cl)ncc4n3)CC2)[C@@H]1N` [Compound 63, (3S,4S)-8-(2-((2-chloro-3-(1-methyl-1H-pyrazole-3-yl)phenyl)mercapto)pteridine-6-y 1)-3-methyl-2-oxa-8-azaspiro[4.5]decane-4-amine] it was ≤ 10 nM; in that of `Nc1nccc(-n2c(=O)[nH]c3nc(N4CCC5(CC4)Cc4ccncc4[C@H]5N)cnc3c2=O)c1Cl` [Compound 21, (S)-3-(2-amino-3-chloropyridine-4-yl)-7-(7-amino-5,7-dihydrospiro[cyclopenta[c]pyridine-6,4′-piperidine]-1′-yl)pteridine-2,4(1H,3H)-dione], ≤ 10 nM. In the case of `CC(C)n1ccc(-c2cccc(Sc3ncc(N4CCC5(CC4)CO[C@@H](C)[C@H]5N)cn3)c2Cl)n1` [Compound 101, (3S,4S)-8-(2-((2-chloro-3-(1-isopropyl-1H-pyrazole-3-yl)phenyl)mercapto)pyrimidine-5-yl)-3-methyl-2-oxa-8-azaspiro[4.5]decane-4-amine] it was ≤ 10 nM; in that of `CCn1ccc(-c2cccc(Sc3nnc(N4CCC5(CC4)CO[C@@H](C)[C@H]5N)nn3)c2Cl)n1` [Compound 128, (3S,4S)-8-(3-((2-chloro-3-(1-ethyl-1H-pyrazole-3-yl)phenyl)mercapto)-tetrazine-6-yl)-3-methyl-2-oxa-8-azaspiro[4.5]decane-4-amine], ≤ 10 nM; in that of `C[C@@H]1OCC2(CCN(c3ncc(Sc4cccc(Nc5ncccn5)c4Cl)cn3)CC2)[C@@H]1N` [Compound 120, (3S,4S)-8-(5-((2-chloro-3-(pyrimidine-2-amino)phenyl)mercapto)pyrimidine-2-yl)-3-methyl-2-oxa-8-azaspiro[4.5]decane-4-amine], ≤ 10 nM. In the case of `CC1(N)CCN(c2cnc3c(=O)n(-c4cccc(Cl)c4Cl)c(=O)[nH]c3n2)CC1` [Compound 11] it was 10 to 100 nM; in that of `CCn1ccc(-c2cccc(Sc3cnc4nc(N5CCC6(CC5)CO[C@@H](C)[C@H]6N)ncc4n3)c2Cl)n1` [Compound 67, (3S,4S)-8-(6-((2-chloro-3-(1-ethyl-1H-pyrazole-3-yl)phenyl)mercapto)pteridine-2-yl)-3-methylyl-2-oxa-8-azaspiro[4.5]decane-4-amine], ≤ 10 nM; in that of `N[C@@H]1c2ccccc2CC12CCN(c1cnc3c(=O)n(-c4cccc(Cl)c4Cl)c(=O)[nH]c3n1)CC2` [Compound 13, (S)-7-(1-amino-1,3-dihydrospiro[indene-2,4′-piperidine]-1′-yl)-3-(2,3-dichlorophenyl) pteridine-2,4(1H,3H)-dione], 10 to 100 nM. With `C[C@@H]1OCC2(CCN(c3cnc4nc(Sc5cccc(-c6cnccn6)c5Cl)ncc4n3)CC2)[C@@H]1N` [Compound 72, (3S,4S)-8-(2-((2-chloro-3-(pyrazine-2-yl)phenyl)mercapto)pteridine-6-yl)-3-methyl-2-oxa-8-azaspiro[4.5]decane-4-amine], the 50% inhibitory concentration (IC50) was ≤ 10 nM. In the case of `CCn1ccc(-c2cccc(Sc3ncc(N4CCC5(CC4)CO[C@@H](C)[C@H]5N)nn3)c2Cl)n1` [Compound 129, (3S,4S)-8-(3-((2-chloro-3-(1-ethyl-1H-pyrazole-3-yl)phenyl)mercapto)-1,2,4-triazine-6-yl)-3-methyl-2-oxa-8-azaspiro[4.5]decane-4-amine] it was ≤ 10 nM; in that of `C[C@@H]1OCC2(CCN(c3ccc4nc(Sc5cccc(-c6ccn(C)n6)c5Cl)ncc4n3)CC2)[C@@H]1N` [Compound 65, (3S,4S)-8-(2-((2-chloro-3-(1-methyl-1H-pyrazole-3-yl)phenyl)mercapto)pyridinyl[3,2-d]pyrimidine-6-yl)-3-methyl-2-oxa-8-azaspiro[4.5]decane-4-amine], ≤ 10 nM. The result for `CCn1ccc(-c2cccc(Sc3ccc(N4CCC5(CC4)CO[C@@H](C)[C@H]5N)nn3)c2Cl)n1` [Compound 127, (3S,4S)-8-(3-((2-chloro-3-(1-ethyl-1H-pyrazole-3-yl)phenyl)mercapto)pyridazine-6-yl)-3-methyl-2-oxa-8-azaspiro[4.5]decane-4-amine] reads ≤ 10 nM.
